Experimental data from patent publication US20130071487A1, “XENON-BASED INHALABLE DRUG FOR PREVENTING ADDICTION RELAPSES IN HUMANS” (L'Air Liquide, Societe Anonyme pour l'Etude et …, priority 2010, published 2013).

How the values were obtained:
[1] = tested on: alcohol consumption after deprivation; assay: Alcohol deprivation effect model (EAD); format: in vivo, male Wistar rats; settings: rat; for effect on alcohol consumption after deprivation (consumption curve versus control) / difference in area under curve versus control group N2/O2: EAD model; for effect on alcohol consumption after deprivation (consumption curve versus control): 50%/50% gas/O2, FIG. 2 and FIG. 3; for difference in area under curve versus control group N2/O2: 50%/50% gas/O2, control 16.34±0.9 g/kg*day; for area under curve of total ethanol consumption: two 1 hour inhalation exposures to 50%/50% gas/O2 mixture, consumption measured daily for 6 post-abstinence days, control N2/O2 16.34±0.9
Description: The alcohol deprivation model (EAD) comprises habituating the animals to consumption of alcohol for a period of 8 weeks, followed by a period of deprivation of 2 weeks, during which alcohol was withdrawn. This cycle is repeated 8 times. After a period of deprivation, access to alcohol causes a significant but temporary increase in alcohol consumption compared to the reference level. This model is ideal for studying behavior during relapse. It was validated with nacamprosate and naltrexone.
The following experimental protocol was followed.
16 male Wistar rats have free and continuous access to 2 feeding bottles, one containing tap water and the other containing 5%, 10% and 20% ethanol (vol./ vol.) in their cages.
The first two-week deprivation period is introduced after 8 weeks of continuously available alcohol, as illustrated in FIG. 1.
After this deprivation period, the rats will have access to alcohol and again to at least 2 more randomly introduced periods of deprivation.
All the animals are divided into 2 groups (8 rats/group) so that for the mean baseline (week 23), the total alcohol consumption will be essentially the same in each group.
On the last day of week 25 at about 9 am, […] animals are exposed to the Xe/O2 (50%/50%) gaseous mixture for 1 hour.
The control group is exposed to N2/O2 (50%/50%). The following day at 9 am all the animals are exposed for a second time to these same gaseous mixtures for 1 hour.
The exposures to the gaseous mixture are represented by two arrows in FIG. 2.
Following this last exposure, the bottles of alcohol will again be offered (post-abstinence days).
Following exposures to the different gases, the total consumption of ethanol (g/kg of body weight) is measured daily at about 10 am, for 6 days.

[2] = tested on: stimuli-induced alcoholic relapse; assay: Stimuli-induced alcoholic relapse model; format: in vivo, male Wistar rats; settings: rat, 1 hour gas exposure 24 hours and 3 hours before the relapse test, FIG. 5
Experimental: Another animal model well-established in the literature was used to evaluate the anti-relapse effects of xenon, namely the stimuli-induced alcoholic relapse model.
This model is based on the fact that taking drugs or alcohol capable of leading to dependence is associated with a number of environmental stimuli (auditory, olfactory, visual) which are themselves likely to lead to a relapse.
Briefly, the experiments were carried out in conditioning chambers equipped with 2 levers allowing the distribution of water or of alcohol.
24 male Wistar rats were used. The animals are trained to self-administer ethanol at 10% by volume during the course of daily sessions lasting 30 minutes.
During the conditioning phase, the animals are trained to distinguish between the availability of alcohol and of water. Stimulus 1 (orange extract) is the signal for availability of alcohol and each pressing of lever No.1 results in conditioned stimulus No.1 (flashing light) and the immediate distribution of alcohol (30 μl). Furthermore, lever No.2 remains unused during the “alcohol sessions” throughout the experiment.
Stimulus n° 2 (anise extract) will give the signal for availability of water during the “water sessions” and each pressing of lever No.2 results in the presentation of conditioned stimulus No.2 (constant light) and the distribution of water (30 μl). […]

[3] = tested on: alcohol consumption following alcohol deprivation; settings: alcohol-dependent rats; cited from earlier work

| Structure (SMILES) | effect on alcohol consumption after deprivation (consumption curve versus control) [1] | difference in area under curve versus control group N2/O2 [1] | area under curve of total ethanol consumption [1] [g/kg*day] | number of presses on the lever delivering the alcohol following exposure to stimulus-1, compared to control N2/O2 50%/50% [2] | effect on increase in alcohol consumption following alcohol deprivation [3] |
| --- | --- | --- | --- | --- | --- |
| [N-]=[N+]=O [N2O, nitrous oxide] | reduces this alcohol consumption to a much lesser extent | 1 | 15.34±1.3 | no significant effect |  |
| CC(=O)NCCCS(=O)(=O)O [acamprosate] |  |  |  |  | a reduction was noted in detrimental effects |
| [Xe] [xenon] | reduction in alcohol consumption | difference of two units | 14.28±1.3 | significant reduction |  |
